Blank lines part the entries; values can stand above or below the compound they belong to.
Assays:
[1] = tested on: rat; conditions: arteriovenous shunt and venous stasis models; cited from earlier work
[2] = target: T1, human factor Xa (Homo sapiens, UniProt P00742); assay: Determination of Factor Xa IC50 (cleavage of fluorogenic substrate F-S2765); format: biochemical; conditions: 3 pM human factor Xa; read-out: FXa 3 pM IC50
T1 construct: purchased Enzyme Research Laboratories
Method: The ability of compounds to act as inhibitors of human factor Xa catalytic activity was assessed by determination of that concentration of test substance that inhibited by 50% (IC50) the ability of human factor Xa to cleave the fluorogenic substrate F-S2765 (N-α-Z-D-Arg-Gly-Arg-pNA HCl, California Peptide Research). […] The IC50 was determined at 3 pM and/or 30 pM concentrations of human factor Xa (Enzyme Research Laboratories). These concentrations were achieved by diluting a stock solution of human factor Xa in the appropriate amount of buffer containing 10 mM HEPES, 150 mM NaCl, and 0.1% BSA at pH 7.4 (HBSA buffer). Accordingly, 73 μL of the factor Xa/buffer solution was added to 2.5 μL of DMSO-reconstituted compound and incubated for 55 minutes at room temperature. After warming to 37° C. for am additional 5 minutes, 50 μL of rewarmed substrate was added and the IC50 determined by monitoring the increase in absorbance at 390 nm excitation/460 nm emission (455 nm cutoff) in a fluorometric plate reader or 30 minutes.

[3] = tested on: human plasma; assay: Determination of Prothrombin Time (PT); format: biochemical; conditions: concentration required to increase the clotting time by 2-fold, human tissue thromboplastin
Method: The prothrombin time (PT) is a measure of extrinsic and common pathway factors. In this assays, human tissue thromboplastin is added to human plasma which activates pathway factors, including factor X activation to factor Xa, leading to clot formation. Significant inhibition of factor Xa, by a small molecule inhibitor, will reduce the conversion of prothrombin to thrombin and thereby increase the time to clot formation in this assay. The value 2 X PT is the concentration of the inhibitor required to increase the clotting time by 2-fold.

[4] = tested on: rabbit; conditions: rabbit model of venous thrombosis; cited from earlier work
[5] = tested on: canine coronary artery; conditions: canine coronary artery electrolytic lesion model; cited from earlier work
[6] = tested on: dog; conditions: adjunct to recombinant tissue plasminogen activator; cited from earlier work

T1 sequence (P00742 235-488 limits assumed): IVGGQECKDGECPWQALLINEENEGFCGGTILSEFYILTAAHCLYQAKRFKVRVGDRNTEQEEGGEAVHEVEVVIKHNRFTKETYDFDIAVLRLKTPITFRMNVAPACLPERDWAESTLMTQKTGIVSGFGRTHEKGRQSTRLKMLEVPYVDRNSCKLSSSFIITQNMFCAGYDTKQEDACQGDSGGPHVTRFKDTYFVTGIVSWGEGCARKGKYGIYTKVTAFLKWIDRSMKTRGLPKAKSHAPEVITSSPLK
T1 sequence (P00742 41-179 partner limits assumed): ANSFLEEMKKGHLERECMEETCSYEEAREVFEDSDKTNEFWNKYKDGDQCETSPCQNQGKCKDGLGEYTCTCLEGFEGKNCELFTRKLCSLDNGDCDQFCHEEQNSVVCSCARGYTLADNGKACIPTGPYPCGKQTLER

Compound: CC(=N)N1CC[C@H](Oc2ccc([C@H](Cc3ccc4ccc(C(=N)N)cc4c3)C(=O)O)cc2)C1 [DX9065a]
inhibition of thrombus formation [1]: inhibition of thrombus formation was achieved at doses that had little effect on APTT

IC50 [2]: 38 nM
Compound: CS(=O)(=O)c1ccccc1-c1ccc(NC(=O)C2(NC(=O)Nc3ccc(Cl)cc3)CCCC2)cc1 [Example 1, 1-[3-(4-Chloro-phenyl)-ureido]-cyclopentanecarboxylic acid (2′-methanesulfonyl-biphenyl-4-yl)-amide]
PT Conc. 2X Prolong. [3]: 13.45 µM

Compound: rTAP: recombinant tick anticoagulant peptide, a protein or polypeptide factor Xa inhibitor (YNRLCIKPRDWIDECDSNEGGERAYFRNGKGGCDSFWICPEDHTGADYYSSYRDCFNACI; UniProt P17726 1-60, looked up)
fibrin deposition [4]: reduce fibrin deposition
thrombus mass and time to occlusion [5]: reduce thrombus mass and time to occlusion
clot lysis and reocclusion [6]: accelerate the recombinant tissue plasminogen activator mediated clot lysis and prevent acute reocclusion

Reference: patent publication US20040167131A1, “Inhibitors of factor Xa and other serine proteases involved in the coagulation cascade” (Pfizer Inc., priority 2002, published 2004)
